The text below walks through data of PubChem BioAssay (NCI).

Among the test systems are COLO 205 colon; SNB-75 CNS; SR leukemia; SK-MEL-5 melanoma; HL-60(TB) leukemia; OVCAR-8 ovarian; SF-268 CNS; KM12 colon; UACC-257 melanoma; SK-MEL-2 melanoma.
Holding throughout (experiment): DTP human tumour cell line panel, 48 h

Molecules are shown by their SMILES. “And” between values parts separate entries of the source, which are not always exact repeats. Identical values can stand only once.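 1) Cells in 96-well plates. 2) Compound, 48 h, 5 concentrations. 3) Linear interpolation between surrounding doses. 4) Unreached endpoint = highest concentration. GI50 is the concentration that inhibits growth by half. TGI marks complete inhibition of growth.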

As a reminder, the TGI is the concentration at which net growth stops. Low readings indicate more potent growth arrest, high ones less potent growth arrest. For `Cn1nc2ccc3nccc(NCCNCCO)c3c2n1`, the TGI in the experiment with COLO 205 colon is 44 µM; in the experiment on SNB-75 CNS, over 100 µM; in the experiment with SR leukemia, over 100 µM; in the experiment on SK-MEL-5 melanoma, over 100 µM; in the experiment with HL-60(TB) leukemia it was over 100 µM; in the experiment with OVCAR-8 ovarian, over 100 µM. Besides, the TGI in the experiment on SF-268 CNS was over 100 µM; with KM12 colon, over 100 µM; in the experiment with UACC-257 melanoma, 76.9 µM.

As to `Cc1ccc(NC(=O)/C(=N/NC(=O)C[N+](C)(C)C)c2nc3ccccc3[nH]c2=O)cc1`, the concentration for total growth inhibition (TGI) in the experiment on COLO 205 colon, in the experiment with SNB-75 CNS, in the experiment with SR leukemia, with SK-MEL-2 melanoma, with SK-MEL-5 melanoma and in the experiment on OVCAR-8 ovarian was over 100 µM in each case. Also, the TGI in the experiment with SF-268 CNS and in the experiment on UACC-257 melanoma was over 100 µM each time.

As usually defined, the GI50 is the concentration at which growth is held to half of that of the control. For `O=C1C(Br)=C(Br)C(=O)c2ccccc21`, the GI50 was 27.2 µM and 3.27 µM in the experiment with SNB-75 CNS; 17 µM and 7.06 µM with OVCAR-8 ovarian; 23.3 µM and 3.27 µM in the experiment with SF-268 CNS; 18.2 µM and 8.21 µM in the experiment on UACC-257 melanoma. Further, the total growth inhibition concentration (TGI) in the experiment on SNB-75 CNS was 79 µM and 11.1 µM; in the experiment on SR leukemia, 9.54 µM; in the experiment on SK-MEL-2 melanoma, 36.2 µM and 29 µM; with SK-MEL-5 melanoma, 23.3 µM; in the experiment with HL-60(TB) leukemia, 15.6 µM; with OVCAR-8 ovarian, 30.9 µM and 57 µM. In addition, the TGI in the experiment on SF-268 CNS is 57.7 µM and 12.9 µM; with KM12 colon, 36.9 µM and 33.3 µM; in the experiment on UACC-257 melanoma it was 32.6 µM and 16.7 µM.

Consider `O=C(NO)c1ccc(Cn2c(=O)n(-c3ccccc3)c(=O)c3ccccc32)cc1`, for which the GI50 in the experiment with COLO 205 colon is 0.356 µM; in the experiment on SNB-75 CNS, 1.88 µM; in the experiment on SR leukemia, 1.68 µM; with SK-MEL-2 melanoma, 1.22 µM; with SK-MEL-5 melanoma, 1.06 µM; in the experiment with HL-60(TB) leukemia, 2.66 µM. For the same compound, the GI50 in the experiment with SF-268 CNS is 1.38 µM; in the experiment with KM12 colon it was 1.11 µM; in the experiment on UACC-257 melanoma, 0.811 µM. The TGI is 1.39 µM with COLO 205 colon; 5.35 µM in the experiment with SNB-75 CNS; over 100 µM with SR leukemia; 3.34 µM in the experiment on SK-MEL-2 melanoma; 2.3 µM in the experiment on SK-MEL-5 melanoma; over 100 µM in the experiment with HL-60(TB) leukemia. In addition, the concentration for total growth inhibition (TGI) was determined as 4.52 µM in the experiment with SF-268 CNS, 2.73 µM in the experiment on KM12 colon and 2.78 µM in the experiment on UACC-257 melanoma.

As to `C=C1CCC2C(C)(CO)C(O)CCC2(C)C1C/C=C1/CCOC1=O` (stereo not given), the TGI in the experiment with COLO 205 colon, in the experiment with SNB-75 CNS, in the experiment on SR leukemia, in the experiment on SK-MEL-2 melanoma, with SK-MEL-5 melanoma and in the experiment on HL-60(TB) leukemia was over 100 µM each time. Moreover, the total growth inhibition concentration (TGI) in the experiment with OVCAR-8 ovarian, in the experiment with KM12 colon and with UACC-257 melanoma was over 100 µM throughout.

`O=C(Nc1ccc(Nc2ccncc2)cc1)c1ccc(Nc2ccnc3ccc([N+](=O)[O-])cc23)cc1[N+](=O)[O-]`: the GI50 in the experiment with COLO 205 colon is 17.5 µM; with SNB-75 CNS, 16 µM; in the experiment on SR leukemia it was 16.6 µM; in the experiment on SK-MEL-5 melanoma, 25.8 µM; with HL-60(TB) leukemia, 25 µM; in the experiment on OVCAR-8 ovarian, 13 µM. Also, the values for the GI50 in the experiment with KM12 colon and with UACC-257 melanoma were 6.47 µM and 11.3 µM, respectively. Moreover, the TGI in the experiment on COLO 205 colon is over 100 µM; with SNB-75 CNS it was 50.6 µM; with SR leukemia, 38.8 µM; with SK-MEL-5 melanoma, over 100 µM; in the experiment on HL-60(TB) leukemia it was over 58.7 µM; in the experiment on OVCAR-8 ovarian it was 45.2 µM. The TGI in the experiment on KM12 colon was over 100 µM; with UACC-257 melanoma, 29.5 µM.

Take `COc1cc(C(O)C(=O)c2cnc3cc([N+](=O)[O-])ccc3n2)ccc1O` (stereo not given): the total growth inhibition concentration (TGI) in the experiment on COLO 205 colon, in the experiment on SNB-75 CNS, in the experiment with SR leukemia, in the experiment with SK-MEL-2 melanoma, with SK-MEL-5 melanoma and in the experiment with HL-60(TB) leukemia was over 100 µM each time. In addition, the TGI in the experiment with OVCAR-8 ovarian, with KM12 colon and with UACC-257 melanoma was over 100 µM each time.

Turning to `CC[C@H]1CN(C)[C@H]2Cc3c([nH]c4ccccc34)C(=O)C[C@H]1C2C(=O)OC` (stereo not given in full), the total growth inhibition concentration (TGI) in the experiment with COLO 205 colon, with SR leukemia, with SK-MEL-2 melanoma, in the experiment with SK-MEL-5 melanoma, with HL-60(TB) leukemia and in the experiment with OVCAR-8 ovarian was over 100 µM in each case. The TGI in the experiment with SF-268 CNS, in the experiment with KM12 colon and with UACC-257 melanoma was over 100 µM each time.

Regarding `CCOC(=O)c1ccccc1SC(C[N+](=O)[O-])c1ccccc1` (stereo not given), the GI50 with COLO 205 colon was 3.6 µM; in the experiment with SNB-75 CNS it was 12.7 µM; in the experiment with SR leukemia, 2.99 µM; in the experiment with SK-MEL-2 melanoma it was 18.9 µM; in the experiment on SK-MEL-5 melanoma, 5.09 µM; in the experiment with HL-60(TB) leukemia it was 5.96 µM. For the same compound, the GI50 was 10.5 µM with OVCAR-8 ovarian, 6.06 µM in the experiment with SF-268 CNS and 3.21 µM in the experiment on KM12 colon. The concentration for total growth inhibition (TGI) amounted to 13 µM in the experiment with COLO 205 colon; 41.6 µM in the experiment with SNB-75 CNS; 8.97 µM with SR leukemia; 36.6 µM in the experiment with SK-MEL-2 melanoma; 17.4 µM in the experiment on SK-MEL-5 melanoma; 27.9 µM with HL-60(TB) leukemia. Besides, the concentration for total growth inhibition (TGI) with OVCAR-8 ovarian is 22.5 µM; in the experiment with SF-268 CNS, 19.2 µM; with KM12 colon it was 10.4 µM.

As for `c1ccc2cc(C[n+]3ccn(Cc4ccc5ccccc5n4)c3)ccc2c1`, the concentration for 50% growth inhibition (GI50) with COLO 205 colon is 0.239 µM and 1.72 µM; in the experiment with SR leukemia, 0.364 µM and 2.82 µM; in the experiment on SK-MEL-2 melanoma, 0.381 µM and 2.44 µM; in the experiment with SK-MEL-5 melanoma, 0.216 µM and 1.21 µM; in the experiment on HL-60(TB) leukemia it was 0.214 µM and 0.827 µM; in the experiment with OVCAR-8 ovarian, 0.754 µM and 3.72 µM. In addition, the GI50 is 0.434 µM and 3.79 µM in the experiment on SF-268 CNS; 0.384 µM and 2.25 µM in the experiment with KM12 colon; 0.28 µM and 2.7 µM in the experiment on UACC-257 melanoma. The TGI was 0.738 µM and 5.07 µM with COLO 205 colon; 2.16 µM and 13.7 µM in the experiment on SR leukemia; 1.8 µM and 8.98 µM with SK-MEL-2 melanoma; 0.532 µM and 2.5 µM in the experiment on SK-MEL-5 melanoma; 0.653 µM and 3.05 µM with HL-60(TB) leukemia; 10.5 µM and 15 µM in the experiment on OVCAR-8 ovarian. In addition, the TGI was 11.3 µM and 18.3 µM with SF-268 CNS; 1.74 µM and 7.56 µM in the experiment on KM12 colon.

On to `CCCC(=O)c1ccc(=O)n(C)c1`, for which the TGI with COLO 205 colon, with SNB-75 CNS, with SR leukemia, with SK-MEL-2 melanoma, in the experiment on SK-MEL-5 melanoma and with HL-60(TB) leukemia was over 100 µM in each case. Besides, the TGI with OVCAR-8 ovarian, in the experiment on SF-268 CNS and in the experiment on KM12 colon was over 100 µM each time.
